Results: US12544355B2, “Use of monascinol in preparation of fat-reducing product” (TIANJIN UNIVERSITY OF SCIENCE AND TECHNOLOGY, priority 2019, dated 2026)
pIC50: −log10 of the molar value. Marks after values point to notes of the source that are not given here.

Legend:
[1] = test system: HepG2 cells modeled with oleic acid; experiment: Triglyceride content in HepG2 cells modeled with oleic acid (triglyceride kit); assay type: cell-based; conditions: 24 h, 0.3 mmol/L oleic acid; for reduce the TG content in cells by: Example 3, 2 μg/mL
Method: • a. HepG2 cells in good growth condition were inoculated in a 6-well plate at 2*10^5 cells/mL, 1 mL per well, cultured for 12 h, and after the cells adhered to the wall, the medium was discarded. • b. after the medium was discarded, a blank group, a modeling group and a dosing group were set. • Blank control group: added with 2 mL of a complete medium per well; • Oleic acid modeling group: added with 2 mL of a complete medium containing 0.3 mmol/L of oleic acid per well; • MC low dose group: added with 2 mL of a complete medium containing 0.3 mmol/L of oleic acid and 2 μg/mL of Monascinol per well; • MC middle dose group: added with 2 mL of a complete medium containing 0.3 mmol/L of oleic acid and 4 μg/mL of Monascinol per well; • MC high dose group: added with 2 mL of a complete medium containing 0.3 mmol/L of oleic acid and 8 μg/mL of Monascinol per well; • After completing the administration, the cells of each group were cultured for 24 hours and then collected, a triglyceride kit (Beijing Applygen Technologies Inc.) was utilized to measure the content of triglyceride in HepG2 cells of each group. • c. results are shown in FIG. 3. Different letters indicate significant differences from the blank group, P<0.01.
Firstly, normal HepG2 cells were obtained, and HepG2 cells modeled with oleic acid were obtained according to the method in Example 1 (a concentration of oleic acid was 0.3 mmol/L).
(§1) On day 1, blank control group: normally cultured HepG2 cells without treatment; oleic acid modeling group (the concentration of oleic acid is 0.3 mmol/L): normally culture HepG2 cells modeled with oleic acid without treatment; MC group: HepG2 cells modeled with oleic acid were administered with 2 μg/mL of Monascinol, i.e., MC; MS group: HepG2 cells modeled with oleic acid were administered with 2 μg/mL of Monascin (MS).
After completing the administration, the cells of each group were cultured for 24 hours and then collected, a triglyceride kit (Beijing Applygen Technologies Inc.) was utilized to measure the content of triglyceride in HepG2 cells of each group, results are shown in FIG. 4.

[2] = test system: HepG2 cells modeled with oleic acid; experiment: Cytotoxicity (MTT) on HepG2 cells modeled with oleic acid; assay type: cell-based; conditions: 24 h, 0.3 mmol/L oleic acid
Method: (§2) HepG2 cells in good growth condition were inoculated in a 6-well plate at 2*10^5 cells/mL, 1 mL per well. When cell adhesion rate reached 80%-90%, the medium was discarded. A blank group and a model group were set, where a complete medium was added to the blank group, 0.3 mmol/L oleic acid induction solution diluted with a complete medium was added to the model group, at 2 mL per well; after 24 hours of culture, the accumulation of lipid drops in the cells was observed by oil red 0 staining.
• a. HepG2 cells in good growth condition were inoculated in a 96-well plate at 5*10^4 cells/mL, 100 μL per well. When the cell adhesion rate reached 80%-90%, the medium was discarded. • b. MS and MC were each dissolved in dimethyl sulfoxide (DMSO) to prepare a 5 mg/mL of mother liquid, and the mother liquid was stored at −20° C. The 5 mg/mL of mother liquid was diluted with a complete medium containing 0.3 mmol/L of oleic acid to obtain MS sample concentrations or MC sample concentrations (2, 4, 6, 8, 10, 12 μg/mL) required for the experiment, ensuring that a final concentration of DMSO in each sample is 0.5%. • c. […]
After 24 h, the survival rate of HepG2 cells in each group was detected based on a MTT experiment method. • d. results are shown in FIG. 2.

pancrelipase = target: T1, pancrelipase (Sus scrofa, UniProt P00591); experiment: Type of inhibition on pancrelipase (order of addition, Lineweaver-Burk double reciprocal plot); assay type: biochemical, porcine; conditions: 160 μg/mL MC, lipase 1 mg/mL
T1 construct: pancrelipase (Type II, derived from a porcine pancreas); from tissue; host or cells: porcine pancreas
T1 sequence (P00591 1-450): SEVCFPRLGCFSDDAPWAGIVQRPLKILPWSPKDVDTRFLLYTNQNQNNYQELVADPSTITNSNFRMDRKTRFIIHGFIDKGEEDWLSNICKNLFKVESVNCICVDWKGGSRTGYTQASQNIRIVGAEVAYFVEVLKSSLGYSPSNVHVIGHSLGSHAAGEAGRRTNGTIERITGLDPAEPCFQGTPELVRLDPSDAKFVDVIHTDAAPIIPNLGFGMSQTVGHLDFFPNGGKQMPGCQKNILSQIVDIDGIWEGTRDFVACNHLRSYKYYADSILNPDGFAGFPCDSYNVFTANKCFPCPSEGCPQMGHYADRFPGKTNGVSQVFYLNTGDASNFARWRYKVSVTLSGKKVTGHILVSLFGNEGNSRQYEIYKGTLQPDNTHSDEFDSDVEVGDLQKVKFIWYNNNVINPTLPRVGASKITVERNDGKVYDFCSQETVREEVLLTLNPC
Method: According to different forms and characteristics of binding between enzymes and inhibitors, the inhibitions can be divided into two types: reversible inhibition and irreversible inhibition. The irreversible inhibition usually binds to a group in an enzyme protein by a relatively strong covalent bond to inactivate an enzyme. […] In this part of experiment, MS and AK were used as controls, and the type of inhibition of MC was determined by changing the order of adding reactants, the intervention concentrations of the three pigment inhibitors were all 80 μg/mL. […]
The type of inhibition of MC on pancrelipase was determined based on the results of Lineweaver-burk double reciprocal plot method as follows.
A basic process of experiment of drawing the Lineweaver-Burk curve was: under the condition of a determined lipase concentration (1 mg/mL), the enzymatic reaction rates were measured with a series of different substrate concentrations. […]

[3] = test system: Golden Syrian hamsters fed with high-fat diet; experiment: High-fat diet hamster experiment, 10 weeks gavage; assay type: in vivo, Golden Syrian hamster
Method: 24 male Golden Syrian hamsters (hamsters for short) used in the animal experiment were purchased from Beijing Vital River Laboratory Animal Technology Co., Ltd., weighing 110-120 g, and aged 8 weeks.
After acclimation for a period of time, they were randomly divided into 3 groups, each with 8 animals, and the grouping and experiments were carried out as follows:
Every day starting from Day 1: • Normal group (NOR): take normal-chow diet freely, and gavage the same amount of CMC-Na solution as the MC group; • High fat group (HFD): take high-fat chow diet freely, and gavage the same amount of CMC-Na solution as the MC group; • MC group: take high-fat chow diet freely, and gavage MC (dissolved in CMC-Na solution) at a dose of 20 mg/kg body weight.
The weight and food intake of the hamsters were measured every week. After 10 weeks, tissue samples or serum samples were collected and the following analysis was performed.
TC and TG in the liver were extracted based on the Folch method, the TC and TG detection kits produced by Nanjing Jiancheng Bioengineering Institute was used to detect the contents of TC and TG in liver tissue according to the method provided in the instructions.
Cobas8000 E602 full-automatic biochemical analyzer (Roche Diagnostics Co., Ltd., Germany) was used to measure TC and TG in serum of collected serum samples.

[4] = test system: HepG2 cells modeled with oleic acid; experiment: Oil red O staining of lipid drops in HepG2 cells modeled with oleic acid; assay type: cell-based; conditions: 2 μg/mL, inverted microscope ×400
Method: as §2, §1
Morphological observation was further carried out by oil red 0 staining, and the results are shown in FIGS. 5A-5C (inverted microscope×400), FIG. 5A is a diagram of lipid accumulation in HepG2 cells of an oleic acid modeling group; FIG. 5B is a diagram of lipid accumulation in HepG2 cells of an MS group; FIG. 5C is a diagram of lipid accumulation in HepG2 cells of an MC group. […] This is consistent with the test result of TG.

[5] = target: T2, pancrelipase (Type II, derived from a porcine pancreas) (Sus scrofa, UniProt P00591); experiment: Inhibitory activity on pancrelipase, 4-MUO substrate, fluorescence detection; assay type: biochemical; conditions: 4-MUO 0.1 mM, lipase 1 mg/mL, 30 mins at 25° C.
T2 construct: pancrelipase (Type II, derived from a porcine pancreas); from tissue; host or cells: porcine pancreas
T2 sequence (P00591 1-450): T1 sequence (P00591 1-450)
Description: In an experiment, 4-methylumbelliferyl oleate (4-MUO) was used as a substrate and a fluorescence detection method was used to evaluate the inhibitory activity of MC on pancrelipase (Type II, derived from a porcine pancreas).
The following groups were set (see also Table 1): • Blank group: no MC sample, only substrate, pancrelipase and Tris-HCL buffer; • Blank background group: no MC sample and pancrelipase, only substrate and Tris-HCL buffer; • Sample background group: no pancrelipase, only MC sample, substrate and Tris-HCL buffer; • Sample group: no Tris-HCL buffer, only MC sample, substrate and pancrelipase.
The inhibition rate was calculated according to the following formula: Inhibition rate (%)=[(A1−A2)−(A3−A4)]/(A1−A2)×100
A1: Fluorescence value in blank group; A2: Fluorescence value in blank background group; A3: Fluorescence value in sample group; and A4: Fluorescence value in sample background group.
Three parallel experiments were set for each group, in which the concentration of 4-MUO is 0.1 mM, and the MC samples were dissolved in DMSO (set 6 different concentrations: 5, 10, 20, 40, 80 and 160 μg/mL), the concentration of the lipase solution is 1 mg/mL. […] Therefore, the product 4-methylumbelliferone was determined under conditions of an excitation wavelength of 360±40 nm and an emission wavelength 460±40 nm. […]

[6] = high-fat diet, gavage 20 mg/kg body weight daily
[7] = histology, 100× and 400× light microscope, 20 mg/kg

Row | SMILES | reduce the TG content in cells by [1] [%] | survival rate of cells ([2]; administration concentration 10 μg/mL or more) [%] | TG content in the cells decreased by (vs modeling group) ([1]; Example 2, 2 μg/mL) [%] | TG content in the cells decreased by (vs modeling group) ([1]; Example 2, 4 μg/mL) [%] | TG content in the cells decreased by (vs modeling group) ([1]; Example 2, 8 μg/mL) [%] | type of inhibition on pancrelipase (pancrelipase) | Fat index (weight of perirenal and periepididymal fat pad/weight of body) [3, 6] | Liver tissue TC [3, 6] | Liver tissue TG [3, 6] | Liver weight [3, 6] | Serum TC [3, 6] | Serum TG [3, 6] | Weight gain [3, 6] | Weight of periepididymal fat pad [3, 6] | Weight of perirenal fat pad [3, 6] | adipose tissue sections: volume of periepididymal and perirenal adipose cells vs HFD group [3, 7] | liver tissue sections: lipid accumulation in liver cells vs HFD group [3, 7] | lipid drops in the cells, oil red O staining vs oleic acid modeling group [4] | survival rate of cells ([2]; administration concentration 12 μg/mL) [%] | pIC50 [5]
1 | C/C=C/C1=CC2=C(CO1)C(=O)[C@]1(C)OC(=O)[C@H](C(=O)CCCCC)[C@H]1C2 [MS, Monascin] | 26.3 | 36.7 |  |  |  |  |  |  |  |  |  |  |  |  |  |  |  |  |  | 
2 | C/C=C/C1=CC2=C(CO1)C[C@]1(C)OC(=O)[C@H](C(O)CCCCC)[C@H]1C2 (stereo partly drawn) [MC, Monascinol] | 33.3 |  | 38.9 | 34.6 | 51.3 | anti-competitive inhibition | 3.56 ± 0.26^a | 20.66 ± 0.58^c mg/g | 9.62 ± 0.34^a mg/g | 4.21 ± 0.17^a g | 4.73 ± 0.21^b mmol/L | 2.97 ± 0.39^c mmol/L | 22.33 ± 4.12^c g | 2.99 ± 0.28^a g | 1.62 ± 0.19^a g | significantly smaller volume than that in the HFD group | significantly reduced | reduce lipid drops in the cells and lighten color | 66.7 | 3.66
